Measurements as given in the NIST ThermoML archive (doi:10.1016/j.jct.2011.01.008).

Legend:
[1] = Liquid; for mass density: 96 kPa, Vibrating tube method; for vapor or sublimation pressure: Index of refraction calibration data
[2] = xn = mol fraction of the nth substance listed; conditions: 96 kPa, Liquid, Vibrating tube method, x2 = 0
[3] = refractive index (Na D-line) (dimensionless); xn = mol fraction of the nth substance listed; conditions: 298.15 K; 96 kPa; Liquid; Standard Abbe refractometry; x2 = 0

CCOS(=O)(=O)[O-].CCn1cc[n+](C)c1 [1-ethyl-3-methylimidazolium ethyl sulfate]
[1]
Conditions | mass density [kg/m3]
288.16 K | 1243.72
293.16 K | 1239.95
298.14 K | 1236.86
298.15 K | 1236.86
303.14 K | 1233.58
308.15 K | 1229.9
313.15 K | 1226.73
318.16 K | 1223.17
323.15 K | 1219.99

CCOS(=O)(=O)[O-].CCn1cc[n+](C)c1 [1-ethyl-3-methylimidazolium ethyl sulfate] + CCC=O
[2]
Conditions | mass density [kg/m3]
288.16 K | 1243.72
293.16 K | 1239.95
298.14 K | 1236.86
303.14 K | 1233.58
308.15 K | 1229.9
313.15 K | 1226.73

Conditions | refractive index
[3] | 1.4817

CCOS(=O)(=O)[O-].CCn1cc[n+](C)c1 [1-ethyl-3-methylimidazolium ethyl sulfate] + CCCCC=O
[2]
Conditions | mass density [kg/m3]
288.16 K | 1243.72
293.16 K | 1239.95
298.14 K | 1236.86
303.14 K | 1233.58
308.15 K | 1229.9
313.15 K | 1226.73
318.16 K | 1223.17
323.15 K | 1219.99

Conditions | refractive index
[3] | 1.4817

CCCCC=O [pentanal]
[1]
Conditions | mass density [kg/m3] | vapor or sublimation pressure [kPa]
288.15 K | 814.15 | –
293.14 K | 809.45 | –
298.14 K | 804.73 | –
298.15 K | 804.73 | –
303.15 K | 799.97 | –
308.15 K | 795.17 | –
313.14 K | 790.33 | –
318.14 K | 785.46 | –
323.14 K | 780.55 | –
376.2 K | – | 101.3

CCC=O [propanal]
[1]
Conditions | mass density [kg/m3] | vapor or sublimation pressure [kPa]
288.14 K | 807.26 | –
293.15 K | 801.06 | –
298.15 K | 794.85 | –
303.15 K | 788.72 | –
308.16 K | 782.55 | –
313.15 K | 776.53 | –
321.2 K | – | 101.3
